Source: ChEMBL document CHEMBL1129600, “Identification of retinoic acid receptor beta subtype specific agonists” (J Med Chem, 1996)

Experiments:
[1] = target: T1, Retinoic acid receptor gamma (Homo sapiens, UniProt P13631); experiment: Inhibition of [3H]ATRA binding to baculovirus expressed Retinoic acid receptor RAR gamma
T1 sequence (P13631 whole entry): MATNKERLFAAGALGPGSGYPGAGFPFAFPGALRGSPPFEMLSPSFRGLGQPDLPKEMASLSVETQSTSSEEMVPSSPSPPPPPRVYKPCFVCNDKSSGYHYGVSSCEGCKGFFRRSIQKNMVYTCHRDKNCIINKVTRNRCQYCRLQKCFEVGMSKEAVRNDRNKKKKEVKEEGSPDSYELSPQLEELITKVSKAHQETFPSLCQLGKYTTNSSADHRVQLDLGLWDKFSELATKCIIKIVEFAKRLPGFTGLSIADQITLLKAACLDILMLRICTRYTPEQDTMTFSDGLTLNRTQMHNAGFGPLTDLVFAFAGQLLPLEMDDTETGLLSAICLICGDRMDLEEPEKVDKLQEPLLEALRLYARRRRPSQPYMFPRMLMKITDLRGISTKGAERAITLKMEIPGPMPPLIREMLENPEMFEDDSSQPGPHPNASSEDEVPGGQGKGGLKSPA

[2] = target: T2, Retinoic acid receptor beta (Homo sapiens, UniProt P10826); experiment: Transcriptional activation in CV-1 cells expressing Retinoic acid receptor RAR beta; type: cell-based
T2 sequence (P10826 whole entry): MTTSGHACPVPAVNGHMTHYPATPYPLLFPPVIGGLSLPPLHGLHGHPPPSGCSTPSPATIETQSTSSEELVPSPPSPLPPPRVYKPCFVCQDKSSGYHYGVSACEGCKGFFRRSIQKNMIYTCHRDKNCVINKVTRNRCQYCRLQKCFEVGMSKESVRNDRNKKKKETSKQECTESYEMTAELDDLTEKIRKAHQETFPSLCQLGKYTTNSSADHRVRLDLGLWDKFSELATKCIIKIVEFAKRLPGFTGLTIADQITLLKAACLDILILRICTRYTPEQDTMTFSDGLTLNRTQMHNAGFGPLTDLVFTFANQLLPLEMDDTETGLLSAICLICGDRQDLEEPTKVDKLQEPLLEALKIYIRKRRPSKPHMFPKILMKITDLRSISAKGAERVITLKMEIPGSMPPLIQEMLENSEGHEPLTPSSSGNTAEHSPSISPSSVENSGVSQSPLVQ

[3] = target: T3, Retinoic acid receptor beta (Homo sapiens) (UniProt P10826); experiment: Relative efficacy for Retinoic acid receptor beta compared to maximal retinoic acid response
T3 sequence (whole entry): T2 sequence (P10826 whole entry)

[4] = target: T2, Retinoic acid receptor beta; experiment: Inhibition of [3H]ATRA binding to baculovirus expressed Retinoic acid receptor RAR beta
[5] = target: T4, Retinoic acid receptor alpha (Homo sapiens, UniProt P10276); experiment: Inhibition of [3H]ATRA binding to baculovirus expressed Retinoic acid receptor RAR alpha
T4 sequence (P10276 whole entry): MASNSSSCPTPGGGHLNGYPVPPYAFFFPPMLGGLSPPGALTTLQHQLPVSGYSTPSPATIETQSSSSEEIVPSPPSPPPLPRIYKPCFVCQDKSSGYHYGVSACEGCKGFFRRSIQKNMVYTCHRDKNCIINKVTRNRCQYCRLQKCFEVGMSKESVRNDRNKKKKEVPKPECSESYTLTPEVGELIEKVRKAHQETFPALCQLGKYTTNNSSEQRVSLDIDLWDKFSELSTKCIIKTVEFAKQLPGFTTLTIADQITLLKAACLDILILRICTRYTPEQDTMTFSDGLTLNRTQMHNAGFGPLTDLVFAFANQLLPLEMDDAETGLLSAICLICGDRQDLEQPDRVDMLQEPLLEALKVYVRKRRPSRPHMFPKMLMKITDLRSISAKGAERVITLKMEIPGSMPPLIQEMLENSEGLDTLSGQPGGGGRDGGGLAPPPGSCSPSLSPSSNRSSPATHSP

Compound	Kd [1] [nM]	EC50 [2] [nM]	Eff [3] [%]	Kd [4] [nM]	Kd [5] [nM]
CC1(C)CC=C(c2cccs2)c2cc(C(=O)Oc3ccc(C(=O)O)cc3)ccc21	1490	26	47	189	303
CC1(C)CC=C(c2cccs2)c2cc(C(=O)Nc3ccc(C(=O)O)cc3)ccc21	> 10000	115	61	996	94
CC1(C)CC=C(c2cccs2)c2cc(C#Cc3ccc(C(=O)O)cc3)ccc21	104	25	32	20	129
